According to patent US9890119B2, “Indole and azaindole derivative having AMPK-activating activity” (SHIONOGI & CO., LTD., priority 2013, dated 2018):

Assays:
[1] = biological target: T1, Human AMPK α2β2γ1 (Homo sapiens, UniProt O43741+P54646); assay: Test Example 2: evaluation of activators of AMP-activated protein kinase (mobility-shift assay, FL-Peptide 7); format: biochemical; conditions: human AMPK α2β2γ1 phosphorylated with CaMKK2; for EC150 (compound concentration showing 150% relative to the control (100%)): 25° C., 2 hours, 1% DMSO; for Emax: control = 100%, read-out: Emax (maximum rate of increase in activity within the measurement range)
T1 construct: The full length cDNAs of human AMPK β2 (NM_005399.3) and human AMPK α2 (NM_006252.3) were inserted; the full length cDNA of human AMPK γ1 (NM_002733.3) had been inserted into pET28b(+); 6xHis (N); made in house; host or cells: Escherichia coli BL21 CodonPlus (DE3)-RIL
Protocol: The full length cDNAs of human AMPK β2 (NM_005399.3) and human AMPK α2 (NM_006252.3) were inserted into the MCS1 and MCS2 of the pETDuet-1 vector to prepare a human AMPK β2 and human AMPK α2 (6× His tag at the 5′ terminus) expressing plasmid. The plasmid was contransfected with an expression plasmid, in which the full length cDNA of human AMPK γ1 (NM_002733.3) had been inserted into pET28b(+), into BL21 CodonPlus (DE3)-RIL to obtain an expression strain. The expression strain was cultured in TB medium, followed by induction with 0.5 mM IPTG, and cultured at 25° C. for 3 hours and then harvested. After ultrasonication, supernatant was collected and applied to Histrap FF column (GE) and RESOUECE Q column (GE) to prepare 12.5 mg of purified sample containing three types of subunit from 1.8 L of broth.
An expression vector, in which the full length cDNA of human CAMKK β (NM_172226.1) had been inserted into pGEX-6P-3, was transfected into BL21 Star (DE3). The expression strain was cultured in TB medium, followed by induction with 0.5 mM IPTG, and cultured at 25° C. for 3 hours and then harvested. After ultrasonication, supernatant was collected and applied to GSTrap FF column (GE) to prepare 14 mg of GST-fused CAMKK […] from 720 ml of broth.
Thus, phosphorylation treatment was carried out as pretreatment.
Human AMPK α2β2γ1 in an amount to give a conversion rate of approximately 10% by reaction for 2 hours, and CaMKK2 in an amount capable of sufficiently imparting activity to AMPK for one hour were mixed in a buffer solution consisting of a 50 mM HEPES-NaOH buffer solution (pH 7.0), 100 mM NaCl, 5 mM magnesium chloride, 0.1% bovine serum albumin, 0.2 mM sodium orthovanadate(V), 1 mM ethylene glycol-bis(2-aminoethyl ether)-N,N,N′,N′-tetraacetic acid (EGTA), 5 mM disodium β-glycerophosphate, 1 mM dithiothreitol and 0.2 mM ATP, and the obtained liquid was left to stand at 25° C. for 1 to 1.5 hours to sufficiently phosphorylate AMPK.
After that, to the enzyme liquid, which had been subjected to phosphorylation treatment, a compound dissolved in DMSO was added so as to have a 1% DMSO concentration. The obtained liquid was left to stand for 10 minutes.
To the liquid, a substrate solution consisting of a 50 mM HEPES-NaOH buffer solution (pH 7.0), 100 mM NaCl, 10 mM magnesium chloride, 0.1% bovine serum albumin, 0.2 mM sodium orthovanadate(V), 1 mM ethylene glycol-bis(2-aminoethyl ether)-N,N,N′,N′-tetraacetic acid (EGTA), 5 mM disodium β-glycerophosphate, 2 mM dithiothreitol, 0.4 mM ATP and 3 μM FL-Peptide 7 (manufactured by Caliper Life Sciences, Inc.) was added in equal amount (10 μl in total). The obtained liquid was allowed to react at 25° C. for 2 hours, and 10 μl of 20 mM EDTA was then added thereto to stop the reaction.
To detect phosphorylated fluorescent substrates, the reaction liquid was applied to a measuring device, LabChip EZ Reader II manufactured by Caliper Life Science, Inc., for detecting fluorescence by using differences in mobility due to differences in charge. The setting conditions for the device were pressure, −1.5 PSI; upstream voltage, −2250 V; downstream voltage, −400 V; post sample buffer sip time, 40 seconds; final delay, 120 seconds; and peak order, Product First.
A conversion rate was calculated from the peak heights of the resulting substrate and product. The conversion rate when not containing a compound was used as a control, and a concentration dependent curve was made by plotting the rate of increase in activity to the control at each concentration of a compound. The compound concentration showing 150% relative to the control (100%) was used as the EC 150 value, and the maximum rate of increase in activity within the measurement range was used as Emax.

[2] = Phototoxicity test

T1 sequence (P54646 whole entry): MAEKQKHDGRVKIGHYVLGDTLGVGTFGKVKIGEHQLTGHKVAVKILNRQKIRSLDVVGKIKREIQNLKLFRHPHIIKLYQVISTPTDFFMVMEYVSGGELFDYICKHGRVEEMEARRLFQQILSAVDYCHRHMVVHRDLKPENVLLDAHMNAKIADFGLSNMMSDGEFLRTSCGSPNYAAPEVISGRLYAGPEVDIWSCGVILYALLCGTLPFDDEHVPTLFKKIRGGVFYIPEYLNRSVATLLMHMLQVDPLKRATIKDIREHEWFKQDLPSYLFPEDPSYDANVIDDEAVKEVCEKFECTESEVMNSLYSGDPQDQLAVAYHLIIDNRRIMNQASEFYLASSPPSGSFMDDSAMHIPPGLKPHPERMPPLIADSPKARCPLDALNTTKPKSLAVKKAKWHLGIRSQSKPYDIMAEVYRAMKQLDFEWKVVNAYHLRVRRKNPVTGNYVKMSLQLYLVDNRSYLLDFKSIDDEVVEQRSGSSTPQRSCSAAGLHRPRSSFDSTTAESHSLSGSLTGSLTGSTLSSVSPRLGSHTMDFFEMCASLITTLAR
T1 sequence (O43741 whole entry): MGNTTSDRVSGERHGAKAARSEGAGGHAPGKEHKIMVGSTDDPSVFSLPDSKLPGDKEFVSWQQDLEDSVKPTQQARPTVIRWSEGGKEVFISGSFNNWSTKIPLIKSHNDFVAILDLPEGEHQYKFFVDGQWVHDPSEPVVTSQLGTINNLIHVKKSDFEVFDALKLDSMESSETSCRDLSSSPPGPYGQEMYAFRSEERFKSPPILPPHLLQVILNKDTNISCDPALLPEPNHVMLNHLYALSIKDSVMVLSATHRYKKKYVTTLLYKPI
T1 sequence (P54619 whole entry partner): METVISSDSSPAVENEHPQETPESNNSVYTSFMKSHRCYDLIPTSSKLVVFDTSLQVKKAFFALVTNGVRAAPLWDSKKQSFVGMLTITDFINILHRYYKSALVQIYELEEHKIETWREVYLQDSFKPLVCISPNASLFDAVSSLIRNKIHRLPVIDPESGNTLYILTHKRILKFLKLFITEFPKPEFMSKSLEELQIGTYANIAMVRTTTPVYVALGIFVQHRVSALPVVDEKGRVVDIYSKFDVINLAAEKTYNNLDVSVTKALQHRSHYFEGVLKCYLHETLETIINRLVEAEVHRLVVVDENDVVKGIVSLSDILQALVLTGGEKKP

| Compound | EC150 (compound concentration showing 150% relative to the control (100%)) [1] [nM] | Emax [1] [%] | phototoxicity test [2] |
| --- | --- | --- | --- |
| CS(=O)(=O)NC1CC=C(c2ccc(-c3nc4cc(O[C@@H]5CO[C@H]6[C@@H]5OC[C@H]6O)[nH]c4cc3Cl)cc2)CC1 (stereo partly shown) [Compound I-3-47] | 0.76 | 727 |  |
| CC(=O)NC1CC=C(c2ccc(-c3nc4cc(O[C@@H]5CO[C@H]6[C@@H]5OC[C@H]6O)[nH]c4cc3Cl)cc2)CC1 (stereo partly shown) [Compound I-3-46] | 0.48 | 750 |  |
| Cc1ccc(Oc2nc3nc(-c4ccc(N5CCOCC5)cc4)c(Cl)cc3[nH]2)cc1C(=O)O [A−1, reference compound] | 130 | 394 |  |
| O[C@@H]1CO[C@H]2[C@@H]1OC[C@H]2Oc1cc2nc(-c3c(F)cc(C4=CCOCC4)cc3F)ccc2[nH]1 [Compound I-3-32] | 2.6 | 661 |  |
| Cc1ccc(Oc2[nH]c3cc(Cl)c(-c4ccc(N5CCOCC5)cc4)cc3c2C#N)cc1C(=O)O [Compound I-1-6] | 76 | 618 |  |
| O=C(O)C1CC=C(c2ccc(-c3nc4cc(O[C@@H]5CO[C@H]6[C@@H]5OC[C@H]6O)[nH]c4cc3Cl)cc2)CC1 (stereo partly shown) [Compound I-3-21] | 0.21 | 787 |  |
| O[C@@H]1CO[C@H]2[C@@H]1OC[C@H]2Oc1cc2nc(-c3c(F)cc(N4CCOCC4)cc3F)c(F)cc2[nH]1 [Compound I-3-24] | 8.8 | 729 |  |
| N#Cc1c(O[C@@H]2CO[C@H]3[C@@H]2OC[C@H]3O)[nH]c2ccc(-c3c(F)cc(C4=CCOCC4)cc3F)nc12 [Compound I-3-45] | 26 | 694 |  |
| CC(C)(C(=O)O)[C@H]1CC[C@H](Oc2cc3nc(-c4ccc(N5CCOCC5)cc4)c(Cl)cc3[nH]2)CC1 [Compound I-3-22] | 120 | 264 |  |
| N#Cc1cc2[nH]c(O[C@@H]3CO[C@H]4[C@@H]3OC[C@H]4O)c(C#N)c2cc1-c1ccc(N2CCOCC2)cc1 [Compound I-2-17] | 98 | 587 |  |
| Cc1ccc(Oc2cc3nc(-c4ccc(N5CCOCC5)cc4)c(Cl)cc3[nH]2)cc1C(=O)O [Compound I-3-50] | 63 | 435 |  |
| CC(C)(CO)C(=O)N1CCC(Oc2cc3nc(-c4ccc(N5CCOCC5)cc4)c(Cl)cc3[nH]2)CC1 [Compound I-3-28] | 54 | 510 |  |
| Clc1cc2[nH]c(O[C@@H]3CO[C@@H]4CCO[C@@H]43)cc2nc1-c1ccc(N2CCOCC2)cc1 [Compound I-3-37] |  |  | negative |
| CC(=O)NC/C=C/c1ccc(-c2cc3c(C#N)c(O[C@@H]4CO[C@H]5[C@@H]4OC[C@H]5O)[nH]c3cc2Cl)cc1 [Compound I-2-9] | 34 | 503 |  |
| N#Cc1c(O[C@@H]2CO[C@H]3[C@@H]2OC[C@H]3O)[nH]c2cc(Cl)c(-c3ccc(C4=CCC(C(=O)O)CC4)cc3)cc12 (stereo partly shown) [Compound I-1-8] | 39 | 580 |  |
| N#Cc1c(O[C@@H]2CO[C@H]3[C@@H]2OC[C@H]3O)[nH]c2ccc(-c3c(F)cc(N4CC[C@@H](O)C4)cc3F)nc12 [Compound I-3-49] | 18 | 848 |  |
| CC(C)(CO)C(=O)N1CCC(Oc2cc3nc(-c4ccc(C5=CCC(C(=O)O)CC5)cc4)c(Cl)cc3[nH]2)CC1 (stereo not shown) [Compound I-3-38] |  | 560 |  |
| O[C@@H]1CO[C@H]2[C@@H]1OC[C@H]2Oc1cc2nc(-c3ccc(N4CCOCC4)cc3)c(Cl)cc2[nH]1 [Compound I-3-15] | 1.9 | 559 |  |
| N#Cc1c(O[C@@H]2CO[C@H]3[C@@H]2OC[C@H]3O)[nH]c2cc(Cl)c(-c3ccc(C4=CCN(C(=O)CO)CC4)cc3)cc12 [Compound I-1-9] | 20 | 559 |  |
| CC(=O)NC(C)(C)c1ccc(Oc2cc3nc(-c4c(F)cc(N5CCOCC5)cc4F)ccc3[nH]2)cc1 [Compound I-3-9] | 39 | 446 |  |
| O[C@@H]1CO[C@H]2[C@@H]1OC[C@H]2Oc1cc2nc(-c3ccc(-c4ccccc4)cc3)c(Cl)cc2[nH]1 [Compound I-3-18] | 4.1 | 489 |  |
